The values below come from ChEMBL document CHEMBL1681641, “Discovery of substituted phenyl urea derivatives as novel long-acting β2-adrenoreceptor agonists” (Bioorg Med Chem Lett, 2011).

The test system of experiment [1] is Cavia porcellus. Description: Bronchocoprotective activity in guinea pig assessed as inhibition of acetylcholine-induced bronchoconstriction administered by aerosol after 24 hrs. The class given is functional, organism-based.
Experiment [2] has as its system Cavia porcellus. Description: Bronchocoprotective activity in guinea pig assessed as inhibition of acetylcholine-induced bronchoconstriction administered by aerosol after 4 hrs. The experiment is classed as functional, organism-based.
A short description of experiment [3]: Bronchodialatory activity in guinea pig trachea assessed as tone recovery measured after 1 hr of drug washout. The experiment is classed as functional, Cavia porcellus. On the set-up: concentration or dose not given beside the values.
In experiment [4] the target is Beta-1 adrenergic receptor (Rattus norvegicus, UniProt P18090). Description: Agonist activity at beta1 adrenoceptor in rat left atria assessed as induction of ionotropic effect. The experiment is classed as functional.
Chain of Beta-1 adrenergic receptor (P18090 whole entry): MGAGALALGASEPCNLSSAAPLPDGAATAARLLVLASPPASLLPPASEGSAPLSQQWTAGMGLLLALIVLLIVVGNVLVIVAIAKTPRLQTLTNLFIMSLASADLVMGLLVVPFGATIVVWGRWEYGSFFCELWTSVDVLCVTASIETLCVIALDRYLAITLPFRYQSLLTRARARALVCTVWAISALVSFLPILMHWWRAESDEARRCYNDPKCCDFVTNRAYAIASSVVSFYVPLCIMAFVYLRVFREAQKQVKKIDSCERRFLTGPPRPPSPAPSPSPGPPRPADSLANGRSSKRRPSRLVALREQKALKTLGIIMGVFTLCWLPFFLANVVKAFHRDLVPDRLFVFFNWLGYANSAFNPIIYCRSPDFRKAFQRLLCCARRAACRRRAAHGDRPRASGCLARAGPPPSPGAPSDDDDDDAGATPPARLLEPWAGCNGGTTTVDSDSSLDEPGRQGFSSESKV
Experiment [5] has as its target Beta-2 adrenergic receptor (Cavia porcellus, UniProt Q8K4Z4). Kind of experiment: Agonist activity at beta2 adrenoceptor in guinea pig tracheal rings assessed as relaxation of tracheal smooth muscle. The class given is functional, tissue-based, Trachea.

SMILES strings stand for the structures. Values after ≈ are worked out from the molar mass of the structure shown.

Chain of Beta-2 adrenergic receptor (Q8K4Z4 whole entry): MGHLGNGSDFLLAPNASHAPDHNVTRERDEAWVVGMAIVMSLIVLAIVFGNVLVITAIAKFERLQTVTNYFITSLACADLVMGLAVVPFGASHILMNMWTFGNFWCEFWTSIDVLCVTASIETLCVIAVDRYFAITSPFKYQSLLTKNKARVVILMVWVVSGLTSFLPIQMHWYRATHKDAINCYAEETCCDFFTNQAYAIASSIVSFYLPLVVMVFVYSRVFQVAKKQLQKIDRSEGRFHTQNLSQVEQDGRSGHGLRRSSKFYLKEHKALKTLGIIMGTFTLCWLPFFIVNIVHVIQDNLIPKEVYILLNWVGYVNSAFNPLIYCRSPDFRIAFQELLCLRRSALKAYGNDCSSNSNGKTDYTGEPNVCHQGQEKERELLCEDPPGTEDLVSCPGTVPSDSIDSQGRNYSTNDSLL

Consider `O=C(Nc1ccccc1)Nc1cccc(CCNCC(O)c2ccc(O)c3[nH]c(=O)ccc23)c1` (stereo unspecified), for which the IC50 in experiment [1] is 3 µg/mL (≈ 6.54 µM); in experiment [2], 0.2 µg/mL (≈ 0.436 µM). Besides, the Activity in experiment [3] stood at 12%. Besides, the values for the EC50 in experiment [4] and in experiment [5] were over 10 µM and 0.07 nM, respectively.
Turning to `O=C(NCc1ccccc1)Nc1cccc(CCNCC(O)c2ccc(O)c3[nH]c(=O)ccc23)c1` (stereo unspecified), the IC50 is over 100 µg/mL in experiment [1] and 0.3 µg/mL (≈ 0.635 µM) in experiment [2]. The Activity in experiment [3] is reported as 15%. The results for the EC50 in experiment [4] and in experiment [5] were 0.9 µM and 0.2 nM, respectively.
For `O=C(NCCc1ccccc1)Nc1cccc(CCNCC(O)c2ccc(O)c3[nH]c(=O)ccc23)c1` (stereo unspecified), the half-maximal inhibitory concentration (IC50) in experiment [1] was over 10 µg/mL; in experiment [2], 2 µg/mL (≈ 4.11 µM). The Activity in experiment [3] worked out at 9%. Further, the EC50 in experiment [4] is over 10 µM; in experiment [5] it was 0.09 nM.
Taken in the same sequence, the figures for `O=C(NCCCc1ccccc1)Nc1cccc(CCNCC(O)c2ccc(O)c3[nH]c(=O)ccc23)c1` (stereo unspecified) were 3 µg/mL (≈ 5.99 µM), 1 µg/mL (≈ 2 µM), 2%, over 10 µM and 0.05 nM.
Regarding `NC(=O)c1cccc(CNC(=O)Nc2cccc(CCNCC(O)c3ccc(O)c4[nH]c(=O)ccc34)c2)c1` (stereo unspecified), the Activity in experiment [3] was determined as 52%. The EC50 in experiment [5] stood at 0.13 nM.
Regarding `COc1ccccc1CNC(=O)Nc1cccc(CCNCC(O)c2ccc(O)c3[nH]c(=O)ccc23)c1` (stereo unspecified), the Activity in experiment [3] came out at 23%. Moreover, the EC50 in experiment [4] was 0.55 µM; in experiment [5], 0.2 nM.
Taken in the same sequence, the figures for `O=C(NCc1ccc(F)cc1)Nc1cccc(CCNCC(O)c2ccc(O)c3[nH]c(=O)ccc23)c1` (stereo unspecified) were 16%, 6.3 µM and 0.2 nM.
Regarding `O=C(NCc1c(Cl)cccc1Cl)Nc1cccc(CCNCC(O)c2ccc(O)c3[nH]c(=O)ccc23)c1` (stereo unspecified), the values for the IC50 in experiment [1] and in experiment [2] were over 100 µg/mL and 4 µg/mL (≈ 7.39 µM), respectively. The Activity in experiment [3] was determined as 4%. The EC50 in experiment [4] stood at 1.6 µM; in experiment [5], 0.2 nM.
For `O=C(Nc1cccc(CCNCC(O)c2ccc(O)c3[nH]c(=O)ccc23)c1)NC(c1ccccc1)c1ccccc1` (stereo unspecified), in that order: 1.5 µg/mL (≈ 2.73 µM), 1 µg/mL (≈ 1.82 µM), 2%, 8.89 µM and 0.2 nM.
For `O=C(Nc1cccc(CCNCC(O)c2ccc(O)c3[nH]c(=O)ccc23)c1)Nc1ccccc1-c1ccccc1` (stereo unspecified), in that order: 7 µg/mL (≈ 13.1 µM), 3 µg/mL (≈ 5.61 µM), 4%, 5.77 µM and 0.7 nM.
On to `O=C(NCC12CC3CC(CC(C3)C1)C2)Nc1cccc(CCNCC(O)c2ccc(O)c3[nH]c(=O)ccc23)c1` (stereo unspecified), for which, in experiment [3], the Activity is 8%. For the same molecule, the EC50 stood at 0.296 µM in experiment [4] and 3.2 nM in experiment [5].
Taken in the same sequence, the figures for `O=C(Nc1cccc(CCNCC(O)c2ccc(O)c3[nH]c(=O)ccc23)c1)Nc1cccc(Oc2ccccc2)c1` (stereo unspecified) were 0%, 10 µM and 1 nM.
`CC(C)(C)c1ccc(CNC(=O)Nc2cccc(CCNCC(O)c3ccc(O)c4[nH]c(=O)ccc34)c2)cc1` (stereo unspecified): the Activity in experiment [3] is listed as 5%. For the same molecule, the EC50 in experiment [5] came out at 0.9 nM.
Turning to `NC(=O)C(c1ccccc1)(c1ccccc1)[C@@H]1CCN(CCc2ccc3c(c2)CCO3)C1` [DARIFENACIN], the IC50 in experiment [1] was found to be 12 µg/mL (≈ 28.1 µM); in experiment [2], 5 µg/mL (≈ 11.7 µM). Moreover, the Activity in experiment [3] is reported as 0%. In addition, the values for the EC50 in experiment [4] and in experiment [5] were 2.31 µM and 1 nM, respectively.

Usually IC50 stands for the concentration that inhibits the measured activity by half. As a reminder, the EC50 is the midpoint of the concentration-response curve.
